Assays:
[1] = molecular target: α7-nicotinic acetylcholine receptor; details: ref Moaddel et al. [2013]; cited from earlier work
[2] = Plasma concentrations of Ket and; type: in vivo, Wistar rat; details: after i.v. 20 mg/kg (R)-Ket, n = 3, ±SD
[3] = Brain tissue concentrations of Ket and; details: for ratio of brain tissue concentration: plasma concentration 10 min / Brain tissue concentration 10 min / ratio of brain tissue concentration: plasma concentration 20 min / Brain tissue concentration 20 min / ratio of brain tissue concentration: plasma concentration 60 min / Brain tissue concentration 60 min: after i.v. 20 mg/kg (R)-Ket; for Brain tissue concentration 10 min / Brain tissue concentration 20 min / Brain tissue concentration 60 min: n = 3, ±SD
Incubation of = type: in vitro ADME, Wistar rat; details: 0.1, 1 and 10 μmol/L; 1 mg/mL S9, NADPH; up to 120 min; data not shown
[4] = rat, ref Leung and Baillie ([1986]), cited from earlier work; for increased spontaneous locomotor activity: postanesthetic recovery phase
[5] = after i.v. (R,S)-Ket; ref Cohen et al. [1973]; cited from earlier work
[6] = organic phase relative to aqueous phase; ref Leung and Baillie ([1986]); cited from earlier work
[7] = Pharmacokinetic parameters for; type: in vivo, Wistar rat; details: metabolite after single i.v. 40 mg/kg (R,S)-Ket

Row | SMILES | Plasma concentration 10 min [2] | Plasma concentration 20 min [2] | Plasma concentration 60 min [2] | Brain tissue concentration 10 min [3] | Brain tissue concentration 20 min [3] | Brain tissue concentration 60 min [3] | increased spontaneous locomotor activity [4] | duration of anesthesia [4] | also measured
1 | NC1(c2ccccc2Cl)CCC=CC1=O (racemic) [(R,S)-DHNK, (R,S)-dehydronorketamine] |  |  |  |  |  |  |  |  | IC50 [1]: < 0.1 µM
2 | CN[C@@]1(c2ccccc2Cl)CCCCC1=O [(R)-Ket, (R)-ketamine, reference compound] | 3.43 ± 0.4 µg/mL | 1.42 ± 0.103 µg/mL | 0.498 ± 0.116 µg/mL | 16,365 ± 1931 ng/g tissue | 8715 ± 4433 ng/g tissue | 5224 ± 3391 ng/g tissue |  |  | ratio of brain tissue concentration: plasma concentration 10 min [3]: (4.8); ratio of brain tissue concentration: plasma concentration 20 min [3]: (6.1); ratio of brain tissue concentration: plasma concentration 60 min [3]: (10.5)
3 | N[C@@]1(c2ccccc2Cl)CCC[C@@H](O)C1=O [(2R,6R)-HNK, (2R,6R)-hydroxynorketamine] | 0.345 ± 0.115 µg/mL | 0.316 ± 0.058 µg/mL | 0.2 ± 0.024 µg/mL | 274 ± 47 ng/g tissue | 191 ± 50 ng/g tissue | 156 ± 34 ng/g tissue |  |  | 
4 | CNC1(c2ccccc2Cl)CCCCC1=O (racemic) [(R,S)-Ket, ketamine, reference compound] |  |  |  |  |  |  | 25 min | 7 min | Ket metabolites formed in incubates (Incubation of): did not contain any known Ket metabolites; time to peak brain tissue concentrations [5]: less than 1 min; relative hydrophobicity from partition coefficients [6]: slightly more hydrophobic
5 | NC1(c2ccccc2Cl)CCCCC1=O (racemic) [(R,S)-norKet, (R,S)-norketamine] |  |  |  |  |  |  | 7 min | 3 min | 
6 | N[C@@]1(c2ccccc2Cl)CCC[C@@H](O)C1=O [(2S,6S;2R,6R)-HNK, (2S,6S;2R,6R)-hydroxynorketamine] |  |  |  |  |  |  | no effect | no effect | t1/2 [7]: 9.5 ± 5.4 h; IC50 [1]: < 0.1 µM; relative hydrophobicity from partition coefficients [6]: significantly less lipophilic
7 | N[C@@]1(c2ccccc2Cl)CCC[C@H](O)C1=O [(2R,6S)-HNK] | 0.222 ± 0.029 µg/mL | 0.096 ± 0.006 µg/mL | 0.035 ± 0.006 µg/mL | 141 ± 20 ng/g tissue | 78 ± 37 ng/g tissue | 48 ± 28 ng/g tissue |  |  | ratio of brain tissue concentration: plasma concentration 10 min [3]: (0.6); ratio of brain tissue concentration: plasma concentration 20 min [3]: (0.8); ratio of brain tissue concentration: plasma concentration 60 min [3]: (1.4); average ratio of brain tissue concentration to plasma concentration ([3]; after i.v. (S)-Ket or (R)-Ket, respectively, over the first 20 min post administration): ~1

Reference: publication PMC4492732 (Pharmacology Research & Perspectives, 2015)
